From US20160367497A1, “METHODS AND COMPOSITIONS FOR TREATING NEUROPATHIES” (Washington University, priority 2007, published 2016)

How the values were obtained:
[1] = system: DRG neuronal explant cultures; assay: in vitro Wallerian degeneration assay, DRG explant neurite transection; assay type: cell-based, mouse; details: for neurite protection after transection: 1 mM applied for 24 hours before neurite transection; for increase in intact neurites at 48 hours after transection: 1 mM exogenous application for 24 hours
Method: To identify the mechanism of delayed axonal degeneration mediated by the Wlds protein, we employed an in-vitro Wallerian degeneration model. Primary DRG explant neurons were infected with lentivirus expressing the appropriate proteins, and axons were injured by either removal of the neuronal cell body (transection) or growth in vincristine (toxic).
Mouse DRG explants from E12.5 embryos were cultured in the presence of 1 nM nerve growth factor. Non-neuronal cells were removed from the cultures by adding 5-fluorouracil to the culture medium. Transection of neurites was performed at 10-20 DIV using an 18-gauge needle to remove the neuronal cell bodies. Incubation with β-nicotinamide adenine dinucleotide (Sigma) or Sirtinol (Calbiochem) was performed using conditions indicated in the text or figures.
Quantitative analysis of axonal degeneration was performed as previously described (Zhai, et al., Neuron 39:217-25, 2003). Briefly, the cultures were examined using phase contrast microscopy at the indicated times. Axons with a fragmented, non-refractile appearance were designated as “degenerated.” At each time point, at least 200 singly distinguishable axons were blindly scored from several randomly taken images of each culture. Each condition was tested in triplicate explants in each experiment. Results were obtained from 2-4 independent experiments for each condition. Statistical analysis was performed by Student's T test. For calculations of neurite-covered area, digitally captured images from quadruplicate samples of two independent experiments were analyzed using analysis 3.1 software (Soft Imaging System, Lakewood, Colo.).
Cell culture, in vitro axotomy, and quantification of axonal degeneration. Mouse DRG explants from E12.5 embryos were cultured in the DMEM containing 10% FCS and 1 nM nerve growth factor. Non-neuronal cells were removed from the cultures by adding 5-fluorouracil to the culture media. Transection of neurites was performed at 14-21 DIV using an 18-gauge needle to remove the neuronal cell bodies. Lentiviral expression vectors were generated. Lentiviral infection was performed 3-7 days prior to axonal transection for 24 hr. Quantitative analysis of neurite degeneration was performed.

[2] = system: DRG neurons; assay: axonal injury of DRG neurons after hypoxia and reoxygenation; assay type: cell-based; details: preincubation 45 min or lentiviral expression; 0.1% O2 8 or 16 hrs, 20 hrs reoxygenation
Method: FIG. 18 illustrates that activation of AMPK protects axons while inhibition of AMPK function enhances axonal injury during oxygen deprivation.
To examine whether AMPK activation prior to hypoxic stress protects axons from injury, either constitutively active AMPK (CaAMPK) was expressed in DRG neurons, or neurons were preincubated with the AMPK activator AICAR for 45 min prior to hypoxia. […] Thus, treatments that increase AMPK activity (e.g. resveratrol, AICAR) can block the axonal damage and are neuroprotective.

[3] = system: neuro2A cells; assay: neurite outgrowth in Neuro2a cells; assay type: cell-based
Method: FIG. 11A-D illustrates the resveratrol and AICAR stimulation of neurite outgrowth in Neuro2a cells. Neuro2a cells were switched to serum-starvation medium (medium containing 0.2% FCS) and treated with DMSO (vehicle control), resveratrol (10 μM) or AICAR (1 mM). (A) Serum deprivation of Neuro2a cells results in growth of short neurites that increase in length over 72 h. (B) Resveratrol induced rapid neurite outgrowth resulting in elaborate neurite network formation by 48 h. (C) AICAR stimulated extensive neurite outgrowth similar to that observed with resveratrol. (D).
FIG. 12A-M illustrates the dependency of resveratrol-induced neurite outgrowth and mitochondrial biogenesis on AMPK. Neuro2a cells were infected with lentivirus expressing GFP only (FUGW, control), dominant negative AMPK (dnAMPK) or constitutively active AMPK (caAMPK). Three days later cells were shifted to serum-starvation medium containing DMSO (control) or resveratrol (10 μM). In addition, uninfected Neuro2a cells in serum-starvation medium were treated with resveratrol alone, the AMPK inhibitor Compound C (CC, Biomol International L.P. (Plymouth Meeting, Pa.)) (10 μM) alone or with resveratrol and CC together. Images of the cultures captured in bright field and green fluorescence were overlaid to visualize neurite outgrowth. […] Neurite length in cells treated with caAMPK+resveratrol is also shown (G). […] Values were normalized to the 18S transcript. Data shown is representative of two independent experiments.
Cell culture and Reagents. Neuro2 cells obtained from ATCC were grown in MEM with 1.5 g/L sodium bicarbonate, 0.1 mM nonessential amino acids, 0.1 mM sodium pyruvate, 2 mM L-glutamine with 10% FCS. For differentiation, cells were switched to serum-starvation medium (containing 0.2% FCS). For neurite outgrowth measurements, experiments were done in quadruplicate and 100 neurites per well were randomly measured using the Metamorph software. Dorsal root ganglia sensory and cortical neurons were established from E13.5 mouse embryos, maintained in neurobasal medium supplemented with B27 (and NGF for DRG neurons) and infected with lentiviruses as described (Araki et al., 2004, Science 305:1010-1013; Hawley et al., 2005, Cell Metab 2:21-23). Resveratrol was a gift from Sirtris Pharmaceuticals (Cambridge Mass.) and AICAR was obtained from Toronto Research (North York, Canada). Splitomycin and Compound C were purchased from Biomol (Plymouth Meeting, Pa.) and Calbiochem (San Diego, Calif.). Sirtinol and nicotinamide were purchased from Sigma (Saint Louis, Mo.)
Neuro2a cells are a widely used as in vitro model of neuronal differentiation. These cells cease to proliferate and begin to differentiate, as evidenced by neurite outgrowth, in response to serum starvation, retinoic acid, or growth factors like neurotrophins and GDNF family ligands. […] Neuro2a cells grown under serum starvation conditions (0.2% fetal calf serum) were treated with AICAR (1 mM) or resveratrol (10 μM).
Since resveratrol activated AMPK and altered the differentiation of Neuro2a cells, we next asked whether AMPK activity was required for resveratrol-induced neurite outgrowth. To address this issue, we infected Neuro2a cells with lentivirus expressing either GFP alone (FUGW-control) or dominant negative AMPK (dnAMPK). After 3 days growth to allow robust lentiviral transgene expression, the medium was replaced with serum starvation medium. […] Resveratrol-induced neurite outgrowth was reduced in the presence of the AMPK pharmacological inhibitor Compound C (CC 10 μM) further supporting the importance of AMPK activity for resveratrol-induced neurite outgrowth.

[4] = system: Tfam, PGC-1α and MFN2 mRNA; assay: mitochondrial biogenesis markers, quantitative RT-PCR in Neuro2a cells; assay type: cell-based; details: with resveratrol 10 μM; Compound C 10 μM or dominant negative AMPK expression
Method: Three days later cells were shifted to serum-starvation medium containing DMSO (control) or resveratrol (10 μM). In addition, uninfected Neuro2a cells in serum-starvation medium were treated with resveratrol alone, the AMPK inhibitor Compound C (CC, Biomol International L.P. (Plymouth Meeting, Pa.)) (10 μM) alone or with resveratrol and CC together. […] Values were normalized to the 18S transcript. Data shown is representative of two independent experiments.
Protein and mRNA analysis. […] Quantitative RT-PCR analysis was performed using Sybr-Green methodology on a model 7700 instrument (Applied Biosystems) as previously described (Araki et al., 2004, Science 305:1010-1013).
We treated Neuro2a cells for 3d with either DMSO (control) or resveratrol (10 μM) in the presence or absence of the AMPK inhibitor Compound C (10 μM). We assessed mitochondrial biogenesis by monitoring mRNA levels of mitofusin 2 (MFN2), a mitochondrial protein and marker of mitochondrial mass and two key regulators of mitochondrial biogenesis, peroxisome proliferator activated receptor γ coactivator 1α (PGC1α) and mitochondrial transcription factor A (Tfam) (Kelly, et al., 2004, Genes Dev 18:357-368).

[5] = system: optic nerve (retinal ganglion cell axons); assay: optic nerve transection after intravitreal injection, neurofilament Western blot; assay type: in vivo, rat; details: 24 hours before transection, 4 days after transection
Method: FIG. 9 illustrates optic nerve transection after intravitreal injection of NAD biosynthetic substrates NAD, NMN, NmR, or Nam was injected into intravitreal compartment of left rat eye and allowed to incorporate retinal ganglion cells for 24 hours after which, left optic nerve was transected by eye enucleation and right and left optic nerves were collected at 4 days after transection and analyzed by Western blotting in which optic nerves transected from […] without any treatment prior to axotomy were used for negative control; showing in the figure, the quantitative analysis data of percentage of remaining neurofilament immunoreactivity from transected optic nerve relative to non-transected±S.D.
Administration of NAD biosynthetic substrates and optic Nerve transection. Nam, NMN, NmR, or NAD was dissolved in PBS at the concentration of 100 mM or 1 M. Each of 5 μl solution was injected into left intravitreal component under the anesthesia at a rate of […]. The left optic nerve was transected at 24 hours after intravitreal injection and optic nerve was recovered at indicated time. Optic nerve tissue was homogenized in 100 μl of a buffer containing 100 mM tris-HCl (pH 6.8), 1% SDS, and 1 mM DTT. Fifty μg of protein for each sample was analyzed by the Western blotting using anti-neurofilament antibody 2H3 (Developmental Studies Hybridoma Center) and peroxidase-conjugated secondary antibody (Jackson ImmunoResearch). The degeneration rate was calculated from the ratio of the neurofilament immunoreactivity of transected vs. contralateral nerves.
Transection of optic nerve is an in vivo model which can be used to investigate mechanisms leading to Wallerian degeneration and following retinal ganglion cell (RGC) death observed in human diseases such as glaucoma. In the C57BL/Wlds mouse strain, optic nerve degeneration during Wallerian degeneration after axotomy is dramatically slowed. In addition, intravitreal injection is used for screening of compounds that protect RGC axon from degeneration in vivo and thus we can asses the axon protective effect of each NAD biosynthetic substrates in vive by intraocular injection of compounds including NAD, NMN, NmR, and Nam. From in vitro Wallerian degeneration assay, 1 mM of NAD, NMN, and NmR in the culture media is enough to protect axon from degeneration. We initially injected 5 μl of 100 mM or 1 M NAD solution into left intravitreal compartment. After 24 hours incubation, left optic nerve was transected and control (right) and axotomized (left) optic nerve were collected at 3, 4, and 5 days after transection. Neurofilament immunoreactivity from the axotomized optic nerve was measured and normalized against the value obtained from the right side of the optic nerve.

[6] = system: neuro2A cells; assay: cellular ATP levels, luciferase-based assay in neuro2A cells; assay type: cell-based; details: 2 hr
Method: To explore the role of polyphenols, in particular, of resveratrol, we tested whether resveratrol altered the activity of AMPK in neuronal cells. Neuro2a neuroblastoma cells were treated with resveratrol (10 μM) and AMPK activation was examined using phospho-AMPK specific antibodies. […] To confirm that AMPK activation by resveratrol results in typical AMPK-mediated downstream responses, we monitored phosphorylation of ACC (acetyl Co-A carboxylase), a primary target of activated AMPK. […] To examine a potential mechanism of resveratrol-mediated AMPK activation, we measured cellular ATP levels as a decreased ATP:AMP ratio increases the phosphorylation of AMPK. ATP levels were monitored using a luciferase-based assay in neuro2A cells treated with resveratrol or Oligomycin, an inhibitor of mitochondrial oxidative phosphorylation and therefore ATP production. While the ATP concentration dropped from 5.874 μM in DMSO-treated cells (control) to 0.976 μM in Oligomycin treated cells within 2 hr, the ATP concentration in resveratrol-treated Neuro2a cells was not altered from control either at 2 hr (6.33 μM) or 24 hr (6.42 μM).

| Structure (SMILES) | neurofilament immunoreactivity of axotomized optic nerve, of non-axotomized optic nerve ([5]; 5 μl of 100 mM intravitreal) [%] | neurite protection after transection [1] | increase in intact neurites at 48 hours after transection [1] | other results |
| --- | --- | --- | --- | --- |
| NC(=O)c1cccc(N)c1 [3AB, 3-aminobenzamide, reference compound] | – | – | – | effect on NAD-dependent axonal protection (NDAP) ([1]; neurons cultured in 1 mM NAD, Sirtinol 100 μM, 3AB 20 mM or siRNA lentivirus, 12 to 72 hr after transection): had no effect on NDAP |
| c1cc(-c2cnn3cc(-c4ccc(OCCN5CCCCC5)cc4)cnc23)ccn1 [Compound C] | – | – | – | axonal injury (axonal beading) after hypoxia [2]: severe axonal injury; effect on resveratrol-stimulated neurite outgrowth ([3]; resveratrol 10 μM, Compound C 10 μM, SIRT1 inhibitors, STO 609 2.5 μM or dnAMPK expression): reduced; neurite growth, inhibitor by itself ([3]; without resveratrol): did not cause any significant inhibition of neurite growth; effect on resveratrol-induced upregulation of mitochondrial markers [4]: severely diminished |
| NC(=O)c1ccc[n+]([C@@H]2O[C@H](COP(=O)([O-])OP(=O)(O)OC[C@H]3O[C@@H](n4cnc5c(N)ncnc54)[C@H](O)[C@@H]3O)[C@@H](O)[C@H]2O)c1 [NAD, nicotinamide adenine dinucleotide] | 78±22 | – | – | neurofilament immunoreactivity of axotomized optic nerve, of non-axotomized optic nerve ([5]; 5 μl of 1 M intravitreal): 77±27% |
| NC(=O)c1ccc[n+]([C@@H]2O[C@H](COP(=O)([O-])O)[C@@H](O)[C@H]2O)c1 [NMN, nicotinamide mononucleotide] | 60±25 | successfully saved neurites from degeneration | comparable increase in intact neurites | – |
| O=C(O)c1cccnc1 [Na, nicotinic acid] | – | failed to save neurites | – | – |
| Nc1ncnc2c1ncn2[C@@H]1O[C@H](COP(=O)(O)OP(=O)(O)OC[C@H]2O[C@@H]([n+]3cccc(C(=O)O)c3)[C@H](O)[C@@H]2O)[C@@H](O)[C@H]1O [NaAD, nicotininc acid adenine dinucleotide] | – | slight protection | less increase in intact neurites at 48 hours compared with NAD | – |
| O=C(O)c1ccc[n+]([C@@H]2O[C@H](COP(=O)(O)O)[C@@H](O)[C@H]2O)c1 [NaMN, nicotinate mononucleotide] | – | saved neurites as well as NAD | comparable increase in intact neurites | – |
| NC(=O)c1ccc[n+]([C@@H]2O[C@H](CO)[C@@H](O)[C@H]2O)c1 [NmR, nicotinamide riboside] | 72±19 | saved neurites as well as NAD | comparable increase in intact neurites | – |
| CC[C@H]1/C=C/C=C/C[C@@H](C)[C@H](O)[C@@](C)(O)C(=O)[C@@H](C)[C@H](O)[C@@H](C)C(=O)[C@@H](C)[C@H](O)[C@@H](C)/C=C/C(=O)O[C@@H]2[C@H](C)[C@H](CC1)O[C@]1(CC[C@H](C)[C@H](C[C@@H](C)O)O1)[C@H]2C [Oligomycin, reference compound] | – | – | – | ATP concentration [6]: 0.976 µM |
